Where “and” joins values, the source holds several entries; their conditions need not be identical. Equal values may be shown once.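 Five compound concentrations were applied to cells in 96-well plates for 48 hours; endpoints were derived by simple linear interpolation of the resulting dose-response curve. Abbreviation: GI50, concentration required for 50% inhibition of growth. TGI is the concentration that stops growth completely.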
Legend:
Test in all cases: inhibition of tumour cell growth, NCI panel, 48 h
[1] = test system: HCT-15 colon
[2] = test system: HL-60(TB) leukemia
[3] = test system: K-562 leukemia
[4] = test system: MALME-3M melanoma
[5] = test system: NCI-H23 lung
[6] = test system: NCI-H522 lung
[7] = test system: NCI/ADR-RES ovarian
[8] = test system: SF-539 CNS
[9] = test system: SK-MEL-2 melanoma
[10] = test system: UACC-257 melanoma

| SMILES | GI50 [1] [µM] | TGI [1] | GI50 [2] [µM] | TGI [2] | GI50 [3] [µM] | TGI [3] | GI50 [4] [µM] | TGI [4] | GI50 [5] [µM] | TGI [5] | GI50 [6] [µM] | TGI [6] [µM] | GI50 [7] [µM] | TGI [7] | GI50 [8] [µM] | TGI [8] | GI50 [9] [µM] | TGI [9] | GI50 [10] [µM] | TGI [10] |
| --- | --- | --- | --- | --- | --- | --- | --- | --- | --- | --- | --- | --- | --- | --- | --- | --- | --- | --- | --- | --- |
| O=C1NC(c2ccccc2)C2(C(=O)O)CN(C3CC3)c3cc(N4CCNCC4)c(F)cc3C2N1 (stereo not given) | > 100 | > 100 µM | > 100 | > 100 µM | > 100 | > 100 µM | > 100 | > 100 µM | > 100 | > 100 µM | > 100 | > 100 | > 100 | > 100 µM | > 100 | > 100 µM | > 100 | > 100 µM | > 100 | > 100 µM |
| O=C(/C=C/C12c3ccccc3C(c3ccccc31)C1C(=O)NC(=O)C12)c1ccccc1 (stereo not given) | 1.64 | 6.84 µM | 1.5 | 5.97 µM | 1.94 | > 100 µM | 1.64 | 3.15 µM | 1.79 | 4.01 µM | 1.8 | 3.69 | 1.92 | 5.73 µM | 1.63 | 3.02 µM | 2.35 | 4.62 µM | 1.61 | 3.48 µM |
| COc1c(N2CCN(CN3C(=O)C(=Nc4ccc(S(=O)(=O)Nc5ncccn5)cc4)c4cc(Cl)ccc43)C(C)C2)c(F)cc2c(=O)c(C(=O)O)cn(C3CC3)c12 (stereo not given) | 45.4 | > 50 µM | 16.6 | > 50 µM | 21.5 | > 50 µM | – | – | 8.22 | 18.4 µM | > 50 | > 50 | 12.3 | 38.1 µM | 15.4 | 40.9 µM | 26.6 | > 50 µM | 6.77 | 17.7 µM |
| CN(C)CCCNc1nc2ccccc2c2[nH]c3ccccc3c12 | 0.266 | 4.31 µM | 1.05 | 2.49 µM | 1.64 | 22.2 µM | – | – | 0.752 | 1.64 µM | 1.32 | 11.1 | 0.769 | 4.08 µM | 0.654 | 1.9 µM | 6.69 | 38.8 µM | 3.48 | 14.7 µM |
| CCC1=C(CC2NCCc3ccccc32)CC2c3cc(OC)c(OC)cc3CCN2C1 (stereo not given) | 5.17 | 30.8 µM and 20.4 µM | 2.89 | 10.7 µM and 5.01 µM | 2.26 | 7.41 µM and 2.1 µM | 3.02 | 9.64 µM and 2.75 µM | 5.2 | 35.9 µM and 13.1 µM | 4.22 | – | 6.7 | 50.9 µM and 12.4 µM | 4.84 | 16.4 µM and 2.85 µM | 4.64 | 16.6 µM and 2.64 µM | 10 | 24.5 µM and 9.49 µM |
| COC(=O)N[C@H]1CCc2c(Cl)c(OC)c(OC)c(OC)c2-c2ccc(SC)c(=O)cc21 | < 0.01 | > 43.9 µM | < 0.01 | < 0.0127 µM | < 0.01 | > 43.9 µM | < 0.01 | 30.5 µM | < 0.01 | 37 µM | < 0.01 | 20.3 | 0.0155 | 0.509 µM | < 0.01 | < 0.01 µM | 5.89 | > 70.3 µM | 24.9 | > 100 µM |
